From publication PMC13055374, “Engineered antimicrobial-derived peptides to manipulate mixed microbial systems” (Microbiology Spectrum, 2026)
No end group written: not given here. *: point of attachment. FITC = O=C1OC2(c3ccc(O)cc3Oc3cc(O)ccc32)c2ccc(NC(=S)*)cc21

Assays:
L. seeligeri [1] = format: cell-based, Listeria seeligeri; settings: for antimicrobial activity of conjugated peptides: growth inhibition, Fig. S7 and S9
Procedure: To determine the potency of the purified pediocin PA-1, we generated kill curves against a range of target bacteria (Fig. 1C). The concentration range tested was 3 pM to 3 μM following 10-fold serial dilutions. […] This is in approximate agreement with the published potency of pediocin PA-1 ([46]). Though the molecular mass of pediocin PA-1 is expected to be 4.5 kDa, we observed the partially purified peptide to migrate with an apparent mass of ~12.5 kDa (Fig. 1B). However, subsequent analysis by LC-MS yielded peaks of multiple m/z with the predominant peak at the expected molecular size of 4.6 kDa (Fig. S4). The purified pediocin PA-1, separated on denaturing but non-reducing SDS-PAGE (since this bacteriocin contains two crucial disulfide bonds), was subjected to agar-overlay assay using L. seeligeri as the indicator organism (Fig. S5).
The antimicrobial spectrum of pediocin PA-1 was assayed using a kill curve. Cultures grown overnight were resuspended in fresh medium at an OD600 of 0.05. EC50 was determined by incubating cells with varying concentrations of pediocin in a 96-well plate, and growth was measured at 600 nm after 24 h.
Figure S7. Growth inhibition of L. seeligeri by modified and unmodified pediocin PA-1.

Enterococcus faecium = assay: Cell-binding assay by flow cytometry; settings: pH 6.0, Fig. 3C
Procedure: (§1) The binding affinity and avidity of pediocin to various gram-positive and gram-negative bacteria were studied using flow cytometry. Late log-phase cells were washed in the sodium phosphate buffer (5 mM, pH 6.0) and resuspended at an OD600 of 10^–3 in sodium-acetate buffer (25 mM, pH 4.0), sodium phosphate buffer (5 mM, pH 6.0), or sodium phosphate buffer (5 mM, pH 7.4) containing 1% bovine serum albumin (BSA) and 100 mM NaCl. Cells were incubated with varying concentrations of the conjugated peptide at 4°C for 30 min. The unbound peptide was removed by centrifugation, and the pellet was resuspended in its respective binding buffer containing 1% BSA. Flow cytometry was performed on an Attune NxT flow cytometer (Life Technologies/ThermoFisher Scientific, Carlsbad, CA). Data (≥10^4 events were recorded) were recorded using a […] (488 nm) at a voltage of 360 V, and gating was performed on an SSC-A versus SSC-H plot to reduce false events.

L. cremoris = assay: Cell-binding assay by flow cytometry; parameters: species or system Lactococcus cremoris; settings: pH 6.0, flow cytometry, 4°C, 30 min; read-out: apparent KD
Procedure: as §1

L. seeligeri [2] = assay: Cell-binding assay by flow cytometry; parameters: species or system Listeria seeligeri; settings: for pH dependence of binding: pH 4.0, 6.0 and 7.4, Fig. S10
Procedure: as §1

L. plantarum = assay: Cell-binding assay by flow cytometry; parameters: species or system Lactiplantibacillus plantarum; settings: pH 6.0, Fig. 3C
Procedure: as §1

L. seeligeri [3] = assay: Inhibition of the activity of full-length unmodified synthetic pediocin by truncated FITC peptides (growth inhibition curve); format: cell-based, Listeria seeligeri; settings: Fig. S9
Text: Despite similar primary structures, the pediocin-like bacteriocins differ in their target cell specificity (i.e., they differ in their antimicrobial spectra) ([49]). By determining the target cell specificity of hybrid bacteriocins containing N- and C-terminal regions from different pediocin-like bacteriocins, it has been shown that the C-termini of these bacteriocins determine target cell specificity ([49], [50]). […] Taking a cue from these studies, we proceeded to investigate whether fragments of pediocin PA-1 could serve as tags to specifically label pediocin-sensitive species without killing them. These could serve as tools to isolate target microorganisms from mixed samples. To this end, we synthesized fluorescein isothiocyanate (FITC)-conjugated versions of pediocin PA-1, a 15-mer (K20–A34) and an extended 30-mer fragment (S15–K43; Fig. S8). We first tested the bioactivity profile of FITC-conjugated pediocin and its fragments. […] Though the inactivity of 15-mer and 30-mer is expected, the loss of activity of pediocin-FITC conjugate could indicate the steric hindrance due to the fluorophore at the N-terminal, which is known to be critical for cell attachment ([53]). To test if this is due to the synthesis of the FITC-conjugate, we conjugated biotin, 7-nitrobenz-2-oxa-1,3-diazole (NBD), and Atto488 to the synthetic pediocin using EDC–NHS coupling (Fig. S6). […]

[4] = system: L. seeligeri in a synthetic community; assay: Binding assay in the mixed community: FACS depletion of FITC-labeled cells, 16S sequencing of the fluorescence-negative population; format: cell-based, Listeria seeligeri; settings: before versus after sorting; pH 6.0, 4°C, 30 min; Fig. 4B
Text: We posited that the pediocin PA-1 characterized here could be a potential tool to modulate the abundance of specific species in an intact microbial community. To this end, we pursued two approaches: (i) using synthetic pediocin PA-1 to deplete specific species by killing and (ii) using FITC-conjugated pediocin PA-1 to deplete specific species by cell sorting. To deplete L. seeligeri by killing, we created a synthetic community of Lacticaseibacillus casei, L. plantarum, L. cremoris, E. faecium, and L. seeligeri and grew it for 2 h. We then split the culture into three parts to which we added 1 μM, 10 μM, or 0 (control) unmodified pediocin PA-1 (Lifetein), respectively. […] Next, we assessed the ability of FITC-conjugated pediocin (Ped-FITC) and its 15-mer version to deplete the target species through cell sorting. Again, we created a synthetic community containing L. seeligeri in abundance and assessed the proportion before and after fluorescence-activated cell sorting (FACS) of FITC-labeled cells. We attempted to sequence the fluorescence-positive population but were unsuccessful due to poor DNA yield. However, the genomic DNA isolated from the fluorescence-negative population indicated depletion of more than 50% in the proportion of L. seeligeri from the synthetic community (Fig. 4B). […]

L. coryniformis = assay: Cell-binding assay by flow cytometry; parameters: species or system Lactobacillus coryniformis
Procedure: as §1

Bacillus subtilis = assay: Cell-binding assay by flow cytometry; settings: pH 6.0, at the highest concentration (30 μM) tested
Procedure: as §1

Row | Substance | antimicrobial activity of conjugated peptides (L. seeligeri [1]) | binding (Enterococcus faecium) | Kd (L. cremoris) | pH dependence of binding (L. seeligeri [2]) | binding (L. plantarum) | ability to inhibit the activity of the full-length unmodified synthetic pediocin (L. seeligeri [3]) | depletion in the proportion of L. seeligeri, fluorescence-negative population after FACS [4] | binding (L. seeligeri [2]; pH 6.0, Fig. 3) | increase of EC50 relative to the unmodified peptide (L. seeligeri [1]; kill curve, Fig. S7) | maximum fluorescence (L. coryniformis; flow cytometry) | binding under acidic conditions (L. coryniformis; Fig. S10) | binding (Bacillus subtilis) | Kd (L. seeligeri [2]; pH 6.0, flow cytometry, 4°C, 30 min, read-out: apparent KD)
1 | 15-mer-FITC: FITC-conjugated 15-mer fragment (K20–A34) of pediocin PA-1 (KATTCIINNGAMAWA; also: FITC-conjugated (site not given here); UniProt P29430 38-52, looked up, fragment) | completely abolished | modest binding | 38 ± 4.7 µM | higher MFI at higher pHs | modest binding | unable to do so | more than 50% | – | – | – | – | – | –
2 | 30-mer-FITC: FITC-conjugated extended 30-mer fragment (S15–K43) of pediocin PA-1 (SVDWGKATTCIINNGAMAWATGGHQGNHK; also: FITC-conjugated (site not given here); UniProt P29430 33-61, looked up, fragment) | completely abolished | – | – | higher MFI at higher pHs | – | unable to do so | – | did not show appreciable binding | – | – | – | – | –
3 | Ped-488: purified biosynthetic pediocin conjugated to Atto488 using EDC–NHS chemistry (KYYGNGVTCGKHSCSVDWGKATTCIINNGAMAWATGGHQGNHKC; ends and bridges not checked; also: Atto488 conjugated by EDC–NHS chemistry (site not given here); UniProt P29430 19-62, looked up) | – | – | – | – | – | – | – | – | > 100 fold | 6,300 MFI | – | – | –
4 | Pediocin-FITC: synthesized fluorescein isothiocyanate (FITC)-conjugated full-length pediocin PA-1 ({FITC}-KYYGNGVTCGKHSCSVDWGKATTCIINNGAMAWATGGHQGNHKC; ends and bridges not checked; also: two disulfide bonds, pairing not given here; UniProt P29430 19-62, looked up) | completely abolished | – | – | strong binding to L. seeligeri at all the tested pHs | – | – | more than 50% | – | – | – | surprisingly poor binding | modest binding | 0.082 ± 0.011 µM
